This note sets out measurements from ChEMBL document CHEMBL3763029, “Heptapeptide ligands against receptor-binding sites of influenza hemagglutinin toward anti-influenza therapy” (Bioorg Med Chem, 2016).

Active and inactive are the calls of the source. No cut-off for these calls is given here. Peptide text beside a SMILES is read from it. * marks the point of attachment. Biotinyl(3aR,4S,6aS) = O=C1N[C@H]2[C@H](CCCCC(=O)*)SC[C@H]2N1; Biotin = O=C1N[C@H]2[C@H](CS[C@H]2CCCCC(=O)*)N1; Stearoyl = CCCCCCCCCCCCCCCCCC(=O)* Where only a bound is given, the exact number is not on record here.

The nature of assay [1]: (§1) Binding affinity to Influenza A virus (A/New Caledonia/20/99 (H1N1)) H1 hemagglutinin after 2 hrs by avidin-biotin-peroxidase complex method. More on the design: species or system Influenza A virus (A/New Caledonia/20/1999(H1N1)).
Assay [2] in a line: Binding affinity to Influenza A virus (A/Aichi/2/68(H3N2)) H3 hemagglutinin after 2 hrs by NMR method. More on the design: species or system Influenza A virus (A/Aichi/2/1968(H3N2)).
The nature of assay [3]: (§2) Binding affinity to Influenza A virus (A/Wyoming/03/2003(H3N2)) H3 hemagglutinin after 2 hrs by avidin-biotin-peroxidase complex method.
Assay [4] relates to Influenza A virus (A/Wyoming/03/2003(H3N2)). Description: Binding affinity to Influenza A virus (A/Wyoming/03/2003(H3N2)) H3 hemagglutinin after 2 hrs by avidin-biotin-peroxidase complex method in presence of Neu5Ac.
Assay [5] shares this test system. Description: Binding affinity to Influenza A virus (A/Wyoming/03/2003(H3N2)) H3 hemagglutinin after 2 hrs by avidin-biotin-peroxidase complex method in presence of glucose.
Assay [6] has the same test system. Described as §2.
Assay [7] shares this test system. The assay can be described thus: Binding affinity to Influenza A virus (A/Wyoming/03/2003(H3N2)) H3 hemagglutinin at 400 uM after 2 hrs by avidin-biotin-peroxidase complex method relative to 7-1 peptide.
Assay [8] concerns Influenza A virus (A/New Caledonia/20/1999(H1N1)). Described as §1.
In assay [9] the test system is Influenza A virus (A/Wyoming/03/2003(H3N2)). The assay can be described thus: Binding affinity to Influenza A virus (A/Wyoming/03/2003(H3N2)) H3 hemagglutinin at 200 uM after 2 hrs by avidin-biotin-peroxidase complex method in presence of Neu5Ac.
Another assay relates to H3N2 subtype. The assay can be described thus: Antiviral activity against Influenza A virus (A/Aichi/2/68(H3N2)) infected in MDCK cells assessed as inhibition of plaque formation pretreated with virus for 30 mins followed by host cell infection for 30 mins measured after 2 days by crystal violet staining assay. In kind it is functional, organism-based. The following applies: A/Aichi/2/1968(H3N2).

In a further assay the test system is Influenza A virus. The assay can be described thus: Antiviral activity against Influenza A virus (A/Puerto Rico/8/34(H1N1)) infected in MDCK cells assessed as inhibition of plaque formation pretreated with virus for 30 mins followed by host cell infection for 30 mins measured after 2 days by crystal violet staining assay. In kind it is functional, organism-based. Particulars: A/Puerto Rico/8/1934(H1N1).

In the case of `CC(=O)N[C@H]1[C@H]([C@H](O)[C@H](O)CO)O[C@@](OC[C@H]2O[C@@H](O[C@H]3[C@H](O)[C@@H](O)[C@H](O)O[C@@H]3CO)[C@H](O)[C@@H](O)[C@H]2O)(C(=O)O)C[C@@H]1O`, the Kd in assay [1] was more than 500 µM; in assay [2], 2.1 mM; in [3], more than 500 µM.

`CC(=O)N[C@H]1[C@H]([C@H](O)[C@H](O)CO)O[C@@](O[C@H]2[C@@H](O)[C@@H](CO)O[C@@H](O[C@H]3[C@H](O)[C@@H](O)[C@H](O)O[C@@H]3CO)[C@@H]2O)(C(=O)O)C[C@@H]1O`: the figures for the Kd in [1], in assay [2] and in assay [3] were more than 200 µM, 3.2 mM and more than 400 µM, respectively.

On to `CC(C)C[C@H](NC(=O)[C@H](C)NC(=O)[C@H](CC(C)C)NC(=O)[C@@H]1CCCN1C(=O)[C@H](CCCNC(=N)N)NC(=O)[C@@H](NC(=O)[C@H](C)N)C(C)C)C(=O)N[C@@H](CCCCNC(=O)CCCC[C@@H]1SC[C@H]2NC(=O)N[C@@H]12)C(N)=O` (H-AVRPLALK(Biotinyl(3aR,4S,6aS))-NH2), for which the result in assay [4] was inactive. In addition, the outcome in assay [5] was Active.

Regarding `CC(C)C[C@H](NC(=O)[C@H](C)NC(=O)[C@H](CC(C)C)NC(=O)[C@@H]1CCCN1C(=O)[C@H](CCCNC(=N)N)NC(=O)[C@@H](NC(=O)[C@@H](N)CC(=O)O)C(C)C)C(=O)N[C@@H](CCCCNC(=O)CCCC[C@@H]1SC[C@H]2NC(=O)N[C@@H]12)C(N)=O` (H-DVRPLALK(Biotinyl(3aR,4S,6aS))-NH2), the outcome in assay [6] was Active.

Regarding `CC(C)C[C@H](NC(=O)[C@H](C)NC(=O)[C@H](CC(C)C)NC(=O)[C@@H]1CCCN1C(=O)[C@H](CCCNC(=N)N)NC(=O)[C@H](C)NC(=O)[C@@H](N)CC(C)C)C(=O)N[C@@H](CCCCNC(=O)CCCC[C@@H]1SC[C@H]2NC(=O)N[C@@H]12)C(N)=O` (H-LARPLALK(Biotinyl(3aR,4S,6aS))-NH2), the outcome in assay [4] was inactive. Moreover, the result in [5] was Active.

On to `CC(C)C[C@H](NC(=O)[C@H](C)NC(=O)[C@H](CC(C)C)NC(=O)[C@@H]1CCCN1C(=O)[C@H](CCCNC(=N)N)NC(=O)[C@H](CCC(N)=O)NC(=O)[C@@H](N)CC(C)C)C(=O)N[C@@H](CCCCNC(=O)CCCC[C@@H]1SC[C@H]2NC(=O)N[C@@H]12)C(N)=O` (H-LQRPLALK(Biotinyl(3aR,4S,6aS))-NH2), for which the result in assay [6] was Active.

Take `CC(C)C[C@H](NC(=O)[C@H](C)NC(=O)[C@H](CC(C)C)NC(=O)[C@@H]1CCCN1C(=O)[C@H](C)NC(=O)[C@@H](NC(=O)[C@@H](N)CC(C)C)C(C)C)C(=O)N[C@@H](CCCCNC(=O)CCCC[C@@H]1SC[C@H]2NC(=O)N[C@@H]12)C(N)=O` (H-LVAPLALK(Biotinyl(3aR,4S,6aS))-NH2): the result in assay [6] was inactive.

The compound `CC(C)C[C@H](NC(=O)[C@H](C)NC(=O)[C@H](CC(C)C)NC(=O)[C@@H]1CCCN1C(=O)[C@H](CC(=O)O)NC(=O)[C@@H](NC(=O)[C@@H](N)CC(C)C)C(C)C)C(=O)N[C@@H](CCCCNC(=O)CCCC[C@@H]1SC[C@H]2NC(=O)N[C@@H]12)C(N)=O` (H-LVDPLALK(Biotinyl(3aR,4S,6aS))-NH2) yielded an Activity in assay [7] of 19%.

As to `CC(C)C[C@H](NC(=O)[C@H](C)NC(=O)[C@H](CC(C)C)NC(=O)[C@@H]1CCCN1C(=O)[C@H](Cc1cnc[nH]1)NC(=O)[C@@H](NC(=O)[C@@H](N)CC(C)C)C(C)C)C(=O)N[C@@H](CCCCNC(=O)CCCC[C@@H]1SC[C@H]2NC(=O)N[C@@H]12)C(N)=O` (H-LVHPLALK(Biotinyl(3aR,4S,6aS))-NH2), the outcome in assay [6] was Active.

On to `CC(C)C[C@H](NC(=O)[C@H](C)NC(=O)[C@H](CCCNC(=N)N)NC(=O)[C@@H](NC(=O)[C@@H](N)CC(C)C)C(C)C)C(=O)N[C@@H](C)C(=O)N[C@@H](CC(C)C)C(=O)N[C@@H](CCCCNC(=O)CCCC[C@@H]1SC[C@H]2NC(=O)N[C@@H]12)C(N)=O` (H-LVRALALK(Biotinyl(3aR,4S,6aS))-NH2), for which the outcome in assay [6] was inactive.

In turn, `CC(C)C[C@H](NC(=O)CNC(=O)[C@H](CCCNC(=N)N)NC(=O)[C@@H](NC(=O)[C@@H](N)CC(C)C)C(C)C)C(=O)N[C@@H](C)C(=O)N[C@@H](CC(C)C)C(=O)N[C@@H](CCCCNC(=O)CCCC[C@@H]1SC[C@H]2NC(=O)N[C@@H]12)C(N)=O` (H-LVRGLALK(Biotinyl(3aR,4S,6aS))-NH2) came in with an Activity in [7] of 17%.

On to `CC(C)C[C@H](NC(=O)[C@H](C)NC(=O)[C@H](CC(C)C)NC(=O)[C@H](Cc1cnc[nH]1)NC(=O)[C@H](CCCNC(=N)N)NC(=O)[C@@H](NC(=O)[C@@H](N)CC(C)C)C(C)C)C(=O)N[C@@H](CCCCNC(=O)CCCC[C@@H]1SC[C@H]2NC(=O)N[C@@H]12)C(N)=O` (H-LVRHLALK(Biotinyl(3aR,4S,6aS))-NH2), for which, in assay [6], the result was Active.

On to `CC(C)C[C@H](NC(=O)[C@H](C)NC(=O)[C@H](C)NC(=O)[C@@H]1CCCN1C(=O)[C@H](CCCNC(=N)N)NC(=O)[C@@H](NC(=O)[C@@H](N)CC(C)C)C(C)C)C(=O)N[C@@H](CCCCNC(=O)CCCC[C@@H]1SC[C@H]2NC(=O)N[C@@H]12)C(N)=O` (H-LVRPAALK(Biotinyl(3aR,4S,6aS))-NH2), for which the outcome in assay [4] was inactive. Moreover, the result in assay [5] was Active.

With `CC(C)C[C@H](NC(=O)[C@@H]1CCCN1C(=O)[C@H](CCCNC(=N)N)NC(=O)[C@@H](NC(=O)[C@@H](N)CC(C)C)C(C)C)C(=O)N[C@@H](C)C(=O)N[C@@H](C)C(=O)N[C@@H](CCCCNC(=O)CCCC[C@@H]1SC[C@H]2NC(=O)N[C@@H]12)C(N)=O` (H-LVRPLAAK(Biotinyl(3aR,4S,6aS))-NH2), in [4], the outcome was inactive. Also, the outcome in assay [5] was Active.

As to `CC(C)C[C@H](NC(=O)[C@H](C)NC(=O)[C@H](CC(C)C)NC(=O)[C@@H]1CCCN1C(=O)[C@H](CCCNC(=N)N)NC(=O)[C@@H](NC(=O)[C@@H](N)CC(C)C)C(C)C)C(=O)N[C@@H](CCCCNC(=O)CCCC[C@@H]1SC[C@@H]2NC(=O)N[C@@H]21)C(N)=O` (H-LVRPLALK(Biotin)-NH2), the Activity result in assay [8] and in [6] was “Dose-dependent effect” each time. The figures for the Kd in assay [1] and in assay [3] were 92 µM and 194 µM, respectively. In addition, in [9], the outcome was inactive.

On to `CC(C)C[C@H](NC(=O)[C@H](CC(=O)O)NC(=O)[C@H](CC(C)C)NC(=O)[C@@H]1CCCN1C(=O)[C@H](CCCNC(=N)N)NC(=O)[C@@H](NC(=O)[C@@H](N)CC(C)C)C(C)C)C(=O)N[C@@H](CCCCNC(=O)CCCC[C@@H]1SC[C@H]2NC(=O)N[C@@H]12)C(N)=O` (H-LVRPLDLK(Biotinyl(3aR,4S,6aS))-NH2), for which, in assay [6], the result was Active.

As to `CC(C)C[C@H](NC(=O)[C@H](C)NC(=O)[C@H](Cc1c[nH]c2ccccc12)NC(=O)[C@@H]1CCCN1C(=O)[C@H](CCCNC(=N)N)NC(=O)[C@@H](NC(=O)[C@@H](N)CC(C)C)C(C)C)C(=O)N[C@@H](CCCCNC(=O)CCCC[C@@H]1SC[C@H]2NC(=O)N[C@@H]12)C(N)=O` (H-LVRPWALK(Biotinyl(3aR,4S,6aS))-NH2), in [6], the result was Active.

On to `CCCCCCCCCCCCCCCCCC(=O)N[C@@H](CC(C)C)C(=O)N[C@H](C(=O)N[C@@H](CCCNC(=N)N)C(=O)N1CCC[C@H]1C(=O)N[C@@H](CC(C)C)C(=O)N[C@@H](C)C(=O)N[C@@H](CC(C)C)C(N)=O)C(C)C` (Stearoyl-LVRPLAL-NH2), for which the IC50 with H3N2 subtype was 6.4 µM; with Influenza A virus it was 101 µM.

By Kd is commonly meant the constant that tells how readily two partners part at equilibrium. Low values mean higher affinity, high ones lower affinity. Broadly, the IC50 is the concentration needed to halve the response being measured.
